{"source": "patent US4536510A", "about": "“Method of antagonizing the effects of thromboxane” (Smith Kline Beckman Corporation, priority 1983, dated 1985)", "key": {"[1]": {"system": "isolated guinea pig tracheas", "test": "Antagonism of contractions elicited by carbocyclic thromboxane A2 (CTA2), trachea", "settings": "for contractile response (mg tension): trachea, Compound I 1×10^-5 M, 30 min", "description": "(§1) Isolated guinea pig tracheas or paired lung parenchymal strips were attached via silk suture to force displacement transducers for recording changes in isometric tension. The tissues were equilibrated for one hour in modified Krebs' buffer at 37.5° C. and aerated with 95% O2 /5% CO2. Then, the tissues were equilibrated for 30 additional minutes with N,N'-bis[7-(3-chlorobenzeneaminosulfonyl)-1,2,3,4-tetrahydroisoquinolyl]disulfonylimide (Compound I) (1×10^-5 M) or buffer. Contraction of the tissues was then elicited by increasing the bath concentration of CTA2 in a cumulative fashion. The contractile responses were recorded as changes in mg tension."}, "[2]": {"system": "isolated guinea pig lung parenchymal strips", "test": "Antagonism of contractions elicited by carbocyclic thromboxane A2 (CTA2), lung parenchymal strips", "settings": "for contractile response (mg tension): lung parenchyma, Compound I 1×10^-5 M, 30 min", "description": "as §1"}, "[3]": {"system": "canine bronchoconstriction induced by U-44069", "test": "Protection in a drug-induced (U-44069) canine bronchospasm", "type": "in vivo, mongrel dogs", "settings": "for Decrease in ability of lungs to expand easily / Increase in resistance to movement of air into the lungs: anesthetized dogs", "description": "Bronchopulmonary responses to these agents were measured by computer analyses in 5 spontaneously breathing, anesthetized mongrel dogs. In a dose range of 0.3-3.0 μg/kg i.v., the endoperoxide analog produced dose-related alterations in pulmonary airway resistance, dynamic lung compliance, expiratory airflow rate, tidal volume and respiratory frequency. […] Inhibition by Compound I occurred in all pulmonary parameters calculated."}, "[4]": {"system": "human platelet aggregation", "test": "Inhibition of human platelet aggregation in platelet-rich plasma", "type": "cell-based", "description": "Platelet-rich plasma (PRP) and platelet-poor plasma (PPP) are prepared from citrated blood of drug-free human volunteers and are stored at room temperature for at least 30 minutes before use. Each PRP sample is preincubated two minutes at 37° C. prior to addition of N,N-bis[7-(3-chlorobenzeneaminosulfonyl)-1,2,3,4-tetrahydroisoquinolyl]disulfonylimide (Compound I) or agonists; Compound I is preincubated for 1 minute prior to addition of agonist. A dose response is determined for each agonist, and a concentration which gives a biphasic response is selected. Compounds are tested for inhibition of the response (control response) generated by this agonist concentration. A time is selected, and the height at which the various curves intersect this time line is measured and expressed in mm (a measure of light transmittance). The difference between the response of the control and that with inhibitor present is used to calculate percent inhibition. This value is plotted against inhibitor concentrations to determine the IC50 (the inhibitory concentration of Compound I which inhibits aggregation by 50%)."}, "[5]": {"settings": "pretreat with Compound I 5 mg/kg i.v., then U-44069 0.3 μg/kg i.v."}, "[6]": {"settings": "pretreat with Compound I 5 mg/kg i.v., then U-44069 1.0 μg/kg i.v."}, "[7]": {"settings": "pretreat with Compound I 5 mg/kg i.v., then U-44069 3.0 μg/kg i.v."}}, "note": "Like-named read-outs stand apart in the source and are kept apart here.", "data": [{"smiles": "O=S(=O)(Nc1cccc(Cl)c1)c1ccc2c(c1)CN(S(=O)(=O)NS(=O)(=O)N1CCc3ccc(S(=O)(=O)Nc4cccc(Cl)c4)cc3C1)CC2", "note": "[Compound I, N,N'-bis[7-(3-chlorobenzeneaminosulfonyl)-1,2,3,4-tetrahydroisoquinolyl]disulfonylimide]", "values": [{"measurement": "response to challenge with reference contractile agonist", "setting": "[1]; trachea receiving Compound I, 1 × 10^-5 M carbachol", "result": "responded normally"}, {"measurement": "contractile response (mg tension)", "setting": "[1]; CTA2 10^-6 M, control 360.0 ± 89.8", "result": "42.9 ± 20.2", "unit": "mg tension"}, {"measurement": "contractile response (mg tension)", "setting": "[1]; CTA2 10^-7 M, control 125.0 ± 33.5", "result": 0, "unit": "mg tension"}, {"measurement": "contractile response (mg tension)", "setting": "[1]; CTA2 10^-8 M, control 0", "result": 0, "unit": "mg tension"}, {"measurement": "response to challenge with reference contractile agonist", "setting": "[2]; lung parenchyma receiving Compound I, 1 × 10^-3 M histamine", "result": "responded normally"}, {"measurement": "contractile response (mg tension)", "setting": "[2]; CTA2 10^-6 M, control 181.5 ± 23.3", "result": 0, "unit": "mg tension"}, {"measurement": "contractile response (mg tension)", "setting": "[2]; CTA2 10^-7 M, control 103.5 ± 23.7", "result": 0, "unit": "mg tension"}, {"measurement": "contractile response (mg tension)", "setting": "[2]; CTA2 10^-8 M, control 45.5 ± 11.4", "result": 0, "unit": "mg tension"}, {"measurement": "Decrease in ability of lungs to expand easily", "setting": "[3]; [5]", "result": 5, "unit": "%"}, {"measurement": "Increase in resistance to movement of air into the lungs", "setting": "[3]; [5]", "result": 14, "unit": "%"}, {"measurement": "Decrease in ability of lungs to expand easily", "setting": "[3]; [6]", "result": 13, "unit": "%"}, {"measurement": "Increase in resistance to movement of air into the lungs", "setting": "[3]; [6]", "result": 30, "unit": "%"}, {"measurement": "Decrease in ability of lungs to expand easily", "setting": "[3]; [7]", "result": 28, "unit": "%"}, {"measurement": "Increase in resistance to movement of air into the lungs", "setting": "[3]; [7]", "result": 56, "unit": "%"}, {"measurement": "effect on U-44069-induced bronchospasm (all pulmonary parameters)", "setting": "[3]; pretreatment with Compound I 5.0 mg/kg i.v., shift to the right of the control U-44069 curve", "result": "inhibition of the bronchospasm"}, {"measurement": "IC50", "setting": "[4]; agonist A23187, human PRP, read-out: IC50, inhibition of secondary phase", "result": 12, "unit": "µM"}, {"measurement": "IC50", "setting": "[4]; agonist Platelet Activating Factor (PAF), human PRP, read-out: IC50, inhibition of secondary phase", "result": 4.5, "unit": "µM"}, {"measurement": "IC50", "setting": "[4]; agonist U-44069, human PRP, read-out: IC50, inhibition of primary phase", "result": 2.5, "unit": "µM"}, {"measurement": "IC50", "setting": "[4]; agonist U-44069, human PRP, read-out: IC50, inhibition of secondary phase", "result": 1.7, "unit": "µM"}, {"measurement": "IC50", "setting": "[4]; agonist arachidonic acid, human PRP, read-out: IC50, inhibition of primary phase", "result": 19, "unit": "µM"}, {"measurement": "IC50", "setting": "[4]; agonist collagen, human PRP, read-out: IC50, inhibition of primary phase", "result": 10, "unit": "µM"}]}, {"smiles": "CCCCC[C@H](O)/C=C/[C@H]1[C@@H]2CO[C@@H](C2)[C@@H]1C/C=C\\CCCC(=O)O", "note": "[Compound U-44069, reference compound]", "values": [{"measurement": "Decrease in ability of lungs to expand easily", "setting": "[3]; U-44069 alone 0.3 μg/kg i.v.", "result": 28, "unit": "%"}, {"measurement": "Increase in resistance to movement of air into the lungs", "setting": "[3]; U-44069 alone 0.3 μg/kg i.v.", "result": 67, "unit": "%"}, {"measurement": "Decrease in ability of lungs to expand easily", "setting": "[3]; U-44069 alone 1.0 μg/kg i.v.", "result": 56, "unit": "%"}, {"measurement": "Increase in resistance to movement of air into the lungs", "setting": "[3]; U-44069 alone 1.0 μg/kg i.v.", "result": 333, "unit": "%"}, {"measurement": "Decrease in ability of lungs to expand easily", "setting": "[3]; U-44069 alone 3.0 μg/kg i.v.", "result": 70, "unit": "%"}, {"measurement": "Increase in resistance to movement of air into the lungs", "setting": "[3]; U-44069 alone 3.0 μg/kg i.v.", "result": 549, "unit": "%"}]}]}
